Values quoted from earlier work in patent publication US20070294068A1, “LINE-WALKING RECURSIVE PARTITIONING METHOD FOR EVALUATING MOLECULAR INTERACTIONS AND QUESTIONS RELATING TO TEST OBJECTS” (priority 2006, published 2007).

System: 2C9
Settings: literature reports

Row | SMILES | reported inhibition of 2C9
1 | CCc1ccc(CCOc2ccc(CC3SC(=O)NC3=O)cc2)nc1 (centres unmarked) [pioglitazone] | weak inhibitor of the *2 allylic variant not the native enzyme
2 | Nc1ccc(S(=O)(=O)Nc2ncccn2)cc1 [sulfadiazine] | only a weak inhibitor
